# Test results from a melting point compilation (Tetko et al.; mined from patent text by program, amines drawn as free bases though some values may be those of a salt).
row,SMILES,melting point
1,CCOC(=O)c1sc2nc(SCCCN3CCN(c4ccc5ccccc5n4)CC3)[nH]c(=O)c2c1C,200 to 201 °C
2,O=C1CCC(Cc2ccccc2Cl)CC1,48 °C
3,Cc1cc(Cl)nc2ccc(Br)cc12,139 to 140 °C
4,CC1(C)C2CC[C@]1(C)C(=O)C(C(=O)Nc1ccc(F)c(Cl)c1)C2=O (stereo partly drawn),87 to 89 °C
5,CC1OC(=O)c2c(O)cccc21 (stereo not drawn),107 to 108 °C
6,O=C(O)CCNC(=O)[C@H](Cc1ccc(-c2ccccc2)cc1)NCP(=O)(O)Oc1ccccc1,222 to 223 °C
7,CC(C)OC1COc2ccc(OCc3ccc4ccccc4n3)cc2C1=O (stereo not drawn),85 °C
8,COc1cccc(C2(O)CCN(C)CC2)c1,111 to 113 °C
9,OCc1cn(-c2ccc(F)c(Cl)c2)cn1,130 to 135 °C
10,Cc1c(CC(=O)O)c2cc(O)c(F)cc2n1C(=O)c1ccc(Cl)cc1,193 to 195 °C
11,Cc1c(O)c(=O)ccn1CCO,164 to 165 °C
12,CC(C)(C)C(=O)COc1ccc(S(=O)(=O)c2ccccc2)cc1,105 to 108 °C
13,COc1cc(COC(=O)C2Cc3sccc3C(=O)N2Cc2cc(OC)c(OC)c(OC)c2)cc(OC)c1OC (stereo not drawn),55 °C
14,Cc1ccnc(Nc2nc(-c3ccc(-c4ccccn4)s3)cs2)c1,185 to 187 °C
15,COC(=O)c1cc(OCc2ccc3ccccc3n2)no1,133 to 134 °C
16,Clc1cc(Cl)cc(-c2n[nH]cc2Cl)c1,192 °C
17,CCOC(=O)c1cn2c3c(c(F)c(F)cc3c1=O)OCC2,265 to 266 °C
18,CC(c1c[nH]cn1)c1cccc(CO)c1O (stereo not drawn),135 to 136 °C
19,CC(=O)N(C)c1cccc(Sc2ccc([N+](=O)[O-])cc2)c1,66 to 68 °C
20,COc1ccc2nc3[nH]nc(N)c3cc2c1,> 300 °C
21,O=c1ccc(-c2c(-c3ccccc3)nn3ccccc23)c[nH]1,222 to 224 °C
22,CC(=O)c1cc(Br)c(OP(=O)(O)O)c(Br)c1,149 to 154 °C
23,Nc1cccc(-c2ccc(CCN3CCN(C(=O)NCc4ccccc4)CC3)cc2)n1,172 to 175 °C
24,COc1cnc(CSc2nc3cc4c(cc3[nH]2)OCO4)cc1OC,198 to 200 °C
25,CC(=NNC(=N)N)c1cccc(OCc2ccc3ccccc3c2)c1,176 to 178 °C
26,O=c1oc2ccc(Cl)cc2c(O)c1CCCOc1ccccc1,162 to 163 °C
27,NC(=O)Cc1cnc2c(NC(=O)c3c(Cl)cccc3Cl)cccc2c1,251 to 253 °C
28,Cc1cc(S(=O)(=O)N(CC(N)=O)c2ccc(Cl)cc2Cc2cc(F)ccc2F)c(C)cc1Cl,170 °C

row,SMILES,melting point
1,CC(=O)OCC1OC(OCCBr)C(OC(C)=O)C(OC(C)=O)C1OC(C)=O (stereo not drawn),116 to 117 °C
2,Cc1ccc(N2CCC(N)=N2)cc1,142 to 143 °C
3,CC(C(=O)O)c1ccc(O)c(N)c1 (stereo not drawn),162 °C
4,FC(F)(F)c1c[nH]c(-c2cccc(OCC3CO3)c2)n1 (stereo not drawn),145 to 146 °C
5,CC1=C(C)C(=O)C(CCCOc2ccc(C=C3SC(=O)NC3=O)cc2)=C(C)C1=O,230 to 232 °C
6,N#Cc1ccc(CCC(O)c2ccc(C#N)cc2)cc1 (stereo not drawn),110 to 112 °C
7,Cc1cc(=O)oc2c(C)c(O)c([N+](=O)[O-])cc12,230 to 232 °C
8,COc1cc(N2CCN([C@H]3CC[C@@H](c4cn(C)c5ccc(C#N)cc54)CC3)CC2)c2ncc(C)cc2c1,190 to 192 °C
9,COc1cc2cnnc(N3CCC4(CC3)OCCCO4)c2cc1OC,194 to 196 °C
10,COc1ccc(S(=O)(=O)N2Cc3cc(C)ccc3N(C(=O)c3ccccc3-n3cccn3)CC2C(=O)O)cc1 (stereo not drawn),149 to 151 °C
11,CSCCn1cc(Cl)nc(N2CCc3cc(Cl)cc(Cl)c32)c1=O,127 to 128 °C
12,O=C1NC(=O)C2c3c([nH]c4ccc(Cl)cc34)-c3[nH]c4ccc(Cl)cc4c3C12 (stereo not drawn),> 300 °C
13,CON=C(c1ccccc1)c1ccccc1N,138 °C
14,CCOC(=O)c1c(Cl)c2ccc(C)nc2n(C)c1=O,108 to 111 °C
15,CCOC(=O)C(=O)c1ccc(OCCCOc2ccc(C(C)=O)c(O)c2)cc1,63 to 65 °C
16,CCOC(=O)Cc1ccc(NC(=O)C(COS(C)(=O)=O)NS(=O)(=O)c2ccc(F)cc2)cc1 (racemic),81 to 82 °C
17,Cc1ccc2c(c1)c(-c1ccnc3c(C(F)(F)F)cccc13)c(C)n2CC(=O)O,145 °C
18,COCCOc1ccc2cc3ccccc3cc2c1,131 to 134 °C
19,C=Cc1ccc(CSCCNC(=O)COCC(=O)O)cc1,44.5 to 46 °C
20,C#Cc1nc(NOC)c2ncn([C@@H]3O[C@H](CO)[C@@H](O)[C@H]3O)c2n1,165 to 167 °C
21,COc1ccc2c(c1)C(=O)OC21CCN(C)CC1,123 to 125 °C
22,COc1ccc2c(c1O)C13CCN(CC4CC4)C(C2)C1CC(C)C(=O)C3 (stereo not drawn),176 to 178 °C
23,CCOC(=O)c1cnn(C)c1C(=O)Nc1ccc2nc(-c3ccccc3)nn2c1,251 to 254 °C
24,O=C1C(=O)N(Cc2ccc(O)cc2)c2ccc(S(=O)(=O)N3CCCC3COc3cccnc3)cc21 (stereo not drawn),127 to 129 °C
25,CCCCCCC(C)(C)c1cc(OC)c(C2=C[C@@H]3CC[C@@]2(CO)C3(C)C)c(OC)c1,49 to 51 °C
26,Cc1nnc2n1-c1sc(CCc3ccc(Cl)cc3)cc1C(c1ccccc1Cl)=NC2,162 to 164 °C
27,O=C1CCC(c2ccc3[nH]c(-c4ccccc4)cc3c2)=NN1,270 to 275 °C

# Second part, the compound after the results:
row,melting point,SMILES
1,206 to 207 °C,C[C@@H](c1ccc(F)cc1)N1CCN(c2cc(Nc3ccc4cccnc4c3)ncn2)CC1
2,79 to 80 °C,CCOC(=O)CC[C@H](NC(=O)c1cc(CCCc2coc3nc(N)nc(N)c23)cs1)C(=O)OCC
3,219 °C,Nc1nc(N)c(-c2ccc(Cl)cc2Cl)c(Cl)n1
4,134 to 136 °C,O=C(Nc1nccs1)C(CC1CCCC1)c1ccc([N+](=O)[O-])cc1 (stereo not drawn)
5,89 to 90 °C,O=S1(=O)NCc2ccccc2O1
6,238 to 241 °C,C#CCS(=O)(=O)c1cc([N+](=O)[O-])ccc1Cl
7,119 to 124 °C,CN(c1cc(N2C(=O)C3CC(Cl)CN3C2=O)c(F)cc1Cl)S(=O)(=O)CCl (stereo not drawn)
8,124 to 125 °C,COc1cc2ccc(-c3ccccc3)cc2cc1SC
9,94 to 98 °C,CCCCCCCCCCCCc1cnn(C(C(=O)O)c2ccccc2)n1 (stereo not drawn)
10,44 to 45 °C,CCCCCCCCCCCCCCc1ccc(C(=O)CCCCC)c(O)c1
11,217 to 221 °C,CCc1nc2c(C)cc(C)nc2n1Cc1ccc(C(Cc2nnn[nH]2)c2ccccc2Cl)cc1 (stereo not drawn)
12,130 °C,CCCn1cc(C(=O)OCC)c(=O)c2ccoc21
13,176 to 177 °C,CSc1ccccc1CNc1ncnc2c1sc1nc(N3CCCC3)c3c(c12)CC(C)(C)OC3
14,145 °C,COc1ccc2ccc(N3C(=O)c4ccccc4C3OC(=O)Oc3ccccc3)nc2n1 (stereo not drawn)
15,49 to 52 °C,CCOC(=O)c1c(C(F)(F)F)nc(C(F)F)c(C(=O)OC)c1C1CC1
16,90 °C,CN1CCC(ON2C(=O)c3ccccc3C2=O)CC1
17,137 °C,CNS(=O)(=O)c1ccc2ccccc2c1
18,180 to 188 °C,COc1cc(OC)c(C(=O)N2CCc3cc(O)ccc3C2)cc1OC
19,115 to 120 °C,CC(c1ccccc1)N1CC(CCl)C(c2ccccc2)(c2ccccc2)C1=O (stereo not drawn)
20,> 260 °C,Nc1nc(O)c2c(n1)NCC(CCc1c[nH]c(C(=O)O)c1)C2 (stereo not drawn)
21,80 to 91 °C,CCOC(=O)c1cccc(Nc2ccncc2N)c1
22,212 to 213 °C,CC1(C)CCc2c(N3CCCC3)nc3sc4c(NCc5ccccn5)ncnc4c3c2C1
23,128 to 130 °C,COC(=O)NCC1Cc2cc(Cl)c3ccccc3c2O1 (stereo not drawn)
24,100 to 101 °C,CCOC(=O)C1COc2c(C(=O)c3ccccc3)cc(Br)cc21 (stereo not drawn)

row,melting point,SMILES
1,228 to 230 °C,Cc1nc2ccccc2c(=O)n1NC(=O)Nc1ccc(Cl)cc1
2,138 to 140 °C,CCC(CC)Oc1cc(C)nc2c1CCC(=O)N2c1c(C)cc(C)cc1C
3,283 to 284 °C,COc1cccc2c1C(=O)c1c(OC)cc(-c3nc4ccccc4n3C)cc1C2=O
4,172 to 174 °C,CC(C)(C)CNCc1nc(-c2ccc3c(c2)Nc2ccccc2S3)cs1
5,172 to 174 °C,CCOc1cc2c(cc1OCC)-c1c(C#N)sc(=O)n1CC2
6,192 to 193 °C,CCOC(=O)Nc1c(C)cc(Cc2cnc(N)nc2N)cc1C
7,115 to 117 °C,CN(C)CCCC1CCCN(C(=O)N2c3ccccc3C(=O)Nc3cccnc32)C1 (stereo not drawn)
8,235 to 236 °C,Cc1cn(-c2cc(NC(=O)c3ccc(C)c(Nc4nccc(-c5cccnc5)n4)c3)cc(C(F)(F)F)c2)cn1
9,178 to 179 °C,COc1ccc2c(c1)c(Cc1nc(-c3ccc(Br)cc3)cs1)c(C)n2Cc1ccc(Br)cc1
10,183 to 185 °C,NC(=O)NC(=O)c1ccccn1
11,278 to 279 °C,CNC1=C(C#N)C(c2ccc(Cl)c([N+](=O)[O-])c2)c2ccc3ccccc3c2O1 (stereo not drawn)
12,114 to 115 °C,CCOC(=O)c1cnn(-c2ccc(OCC(CC)CC)c(C#N)c2)c1
13,156 to 159 °C,S=C1Nc2ccccc2Sc2nccn21
14,210 to 211 °C,CC(C)(C)OC(=O)Nc1cccc(C2CCN(c3nc4c(cc3F)c(=O)c(C(=O)O)cn4C3CC3)C2)c1 (stereo not drawn)
15,68 to 69 °C,CN1CCn2nc(Nc3cc(Cl)nn(COCC[Si](C)(C)C)c3=O)cc2C1
16,151 to 153 °C,Cn1cc(-c2cccc(Br)c2)c(=O)c(-c2cccc(C(F)(F)F)c2)c1
17,184 to 185 °C,O=C(O)C(=O)CC(=O)c1cccn1Cc1ccc(Br)cc1
18,92 to 94 °C,CC(C)(O)c1ccc(CNC(=O)c2cccnc2Oc2ccc(F)cc2F)cc1
19,52 to 53 °C,CC(=O)/C=C(\C)c1ccc(C2CCCCC2)c(Br)c1
20,215 to 224 °C,O=C(O)c1cn(-c2c[nH]nn2)c2cc(F)c(F)cc2c1=O
21,27 to 30 °C,CCCCCCCCCCCC(CC1OC(=O)C1CCCCCC)OC(=O)C(N)CC(C)C (stereo not drawn)
22,110 to 112 °C,Cc1ccc(S(=O)(=O)N[C@@H](C)C(=O)Oc2csc(-c3ccccc3)n2)cc1
23,200 to 202 °C,Cc1cn(N=Cc2cccnc2)c(=O)[nH]1
24,> 270 °C,CC1OC(=Nc2nccs2)c2c1nc1ccccc1c2O (stereo not drawn)
